Laboratory results: US20030229053A1, “Compounds and methods for the treatment or prevention of flavivirus infections” (Shire BioChem Inc., priority 2001, published 2003)

Biological target: recombinant HCV NS5B (Hepatitis C virus genotype 1b, UniProt P26663)
Assay: biochemical
Details: flashplate, polyrA/biotinylated-oligo dT, 100 nM NS5B, 2 hrs at room temperature; read-out: RNA pol Assay 2 IC50 (μm)
Description: In vitro HCV RdRp Flashplate Scintillation Proximity Assay (Strep-Flash Assay) Used to Evaluate Analogues:
In brief, a 400 ng/μl polyrA solution (Amersham Pharmacia Biotech) was mixed volume-to-volume with 5′ biotin-oligo dT12 at 20 pmol/μl. The template and primers were denatured at 95 C for 5 minutes then incubated at 37 C for 10 minutes. Annealed template-primers were subsequently diluted in a Tris-HCl containing buffer and allowed to bind to streptavidin-coated flashplates overnight.

recombinant HCV NS5B, sequence (P26663 2420-3010 limits assumed): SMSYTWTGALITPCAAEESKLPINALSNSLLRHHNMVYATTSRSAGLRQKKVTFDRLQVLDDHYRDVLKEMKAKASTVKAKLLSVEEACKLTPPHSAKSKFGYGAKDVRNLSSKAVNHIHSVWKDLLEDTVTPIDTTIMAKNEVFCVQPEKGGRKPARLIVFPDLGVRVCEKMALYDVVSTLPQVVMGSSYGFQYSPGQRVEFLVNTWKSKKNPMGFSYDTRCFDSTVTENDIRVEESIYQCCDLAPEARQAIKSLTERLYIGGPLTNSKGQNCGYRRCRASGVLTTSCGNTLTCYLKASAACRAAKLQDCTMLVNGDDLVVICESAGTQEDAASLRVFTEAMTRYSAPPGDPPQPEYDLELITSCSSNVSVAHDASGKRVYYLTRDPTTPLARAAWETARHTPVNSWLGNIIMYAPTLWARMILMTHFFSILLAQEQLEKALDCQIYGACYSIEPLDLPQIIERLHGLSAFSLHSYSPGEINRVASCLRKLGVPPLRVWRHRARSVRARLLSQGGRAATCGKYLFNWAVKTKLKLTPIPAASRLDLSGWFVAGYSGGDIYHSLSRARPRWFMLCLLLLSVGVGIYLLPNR

Row | Structure (SMILES) | IC50 [µM]
1 | O=C(O)C(Cc1ccccc1)N(Cc1ccc(OCc2ccc(F)cc2)cc1)C(=O)c1ccc(Cl)cc1Cl (stereo not drawn) [compound #172, 2-{(2,4-Dichloro-benzoyl)-[4-(4-fluoro-benzyloxy)-benzyl]-amino}-3-phenyl-propionic acid] | 5 to 20
2 | O=C(O)C(Cc1ccccc1)N(Cc1ccc(F)c(C(F)(F)F)c1)C(=O)c1ccc(Cl)cc1Cl (stereo not drawn) [compound #173, 2-[(2,4-Dichloro-benzoyl)-(4-fluoro-3-trifluoromethyl-benzyl)-amino]-3-phenyl-propionic acid] | 5 to 20
3 | O=C(O)C(Cc1ccccc1)N(Cc1cccn1S(=O)(=O)c1ccccc1)C(=O)c1ccc(Cl)cc1Cl (stereo not drawn) [compound #174, 2-[(1-Benzenesulfonyl-1h-pyrrol-2-ylmethyl)-(2,4-dichloro-benzoyl)-amino]-3-phenyl-propionic acid] | 5 to 20
4 | O=C(O)C(Cc1ccccc1)N(Cc1cccc(Oc2ccc(Cl)cc2)c1)C(=O)c1ccc(Cl)cc1Cl (stereo not drawn) [compound #175, 2-[[3-(4-Chloro-phenoxy)-benzyl]-(2,4-dichloro-benzoyl)-amino]-3-phenyl-propionic acid] | 5 to 20
5 | O=C(O)C(Cc1ccccc1)N(Cc1ccccc1OCc1ccccc1)C(=O)c1ccc(Cl)cc1Cl (stereo not drawn) [compound #177, 2-[(2-Benzyloxy-benzyl)-(2,4-dichloro-benzoyl)-amino]-3-phenyl-propionic acid] | 5 to 20
6 | COc1ccc(C(C)C)cc1-c1ccsc1CN(C(=O)c1ccc(Cl)cc1Cl)[C@@H](Cc1ccccc1)C(=O)O [compound #178, 2-{(2,4-Dichloro-benzoyl)-[3-(5-isopropyl-2-methoxy-phenyl)-thiophen-2-ylmethyl]-amino}-3-phenyl-propionic acid] | 5 to 20
7 | O=C(O)[C@H](Cc1ccccc1)N(Cc1sccc1-c1ccc(OC(F)(F)F)cc1)C(=O)c1ccc(Cl)cc1Cl [compound #179, 2-{(2,4-Dichloro-benzoyl)-[3-(4-trifluoromethoxy-phenyl)-thiophen-2-ylmethyl]-amino}-3-phenyl-propionic acid] | 5 to 20
8 | O=C(O)[C@H](Cc1ccccc1)N(Cc1sccc1-c1cccc(C(F)(F)F)c1)C(=O)c1ccc(Cl)cc1Cl [compound #180, 2-{(2,4-Dichloro-benzoyl)-[3-(3-trifluoromethyl-phenyl)-thiophen-2-ylmethyl]-amino}-3-phenyl-propionic acid] | 5 to 20
9 | O=C(O)[C@H](Cc1ccccc1)N(Cc1sccc1-c1cc(C(F)(F)F)cc(C(F)(F)F)c1)C(=O)c1ccc(Cl)cc1Cl [compound #181, 2-[[3-(3,5-Bis-trifluoromethyl-phenyl)-thiophen-2-ylmethyl]-(2,4-dichloro-benzoyl)-amino]-3-phenyl-propionic acid] | 5 to 20
10 | O=C(O)[C@H](Cc1ccccc1)N(Cc1sccc1-c1ccncc1)C(=O)c1ccc(Cl)cc1Cl [compound #182, 2-[(2,4-Dichloro-benzoyl)-(3-pyridin-4-yl-thiophen-2-ylmethyl)-amino]-3-phenyl-propionic acid] | 5 to 20

Continued, values first:

Row | IC50 [µM] | Structure (SMILES)
11 | 5 to 20 | CSc1ccc(-c2ccsc2CN(C(=O)c2ccc(Cl)cc2Cl)[C@@H](Cc2ccccc2)C(=O)O)cc1 [compound #183, 2-{(2,4-Dichloro-benzoyl)-[3-(4-methylsulfanyl-phenyl)-thiophen-2-ylmethyl]-amino}-3-phenyl-propionic acid]
12 | < 5 | O=C(O)[C@H](Cc1ccccc1)N(Cc1sccc1-c1ccc(F)cc1)C(=O)c1ccc(Cl)cc1Cl [compound #184, 2-{(2,4-Dichloro-benzoyl)-[3-(4-fluoro-phenyl)-thiophen-2-ylmethyl]-amino}-3-phenyl-propionic acid]
13 | < 5 | O=C(O)[C@H](Cc1ccccc1)N(Cc1sccc1-c1cccnc1)C(=O)c1ccc(Cl)cc1Cl [compound #185, 2-[(2,4-Dichloro-benzoyl)-(3-pyridin-3-yl-thiophen-2-ylmethyl)-amino]-3-phenyl-propionic acid]
14 | 5 to 20 | O=C(O)[C@H](Cc1ccccc1)N(Cc1ccccc1Br)C(=O)c1ccc(Cl)cc1Cl [compound #187, 2-[(2-Bromo-benzyl)-(2,4-dichloro-benzoyl)-amino]-3-phenyl-propionic acid]
15 | 5 to 20 | CN(C(=O)c1ccc(Cl)cc1Cl)[C@@H](Cc1ccccc1Br)C(=O)O [compound #188, 3-(2-Bromo-phenyl)-2-[(2,4-dichloro-benzoyl)-methyl-amino]-propionic acid]
16 | < 5 | CN(C(=O)c1ccc(Cl)cc1Cl)[C@H](Cc1ccc(Br)cc1)C(=O)O [compound #189, 3-(4-Bromo-phenyl)-2-[(2,4-dichloro-benzoyl)-methyl-amino]-propionic acid]
17 | 5 to 20 | O=C(O)C(Cc1ccccc1)N(C(=O)c1ccc(Cl)cc1Cl)c1cccc(Br)c1 (stereo not drawn) [compound #190, 2-[(3-Bromo-phenyl)-(2,4-dichloro-benzoyl)-amino]-3-phenyl-propionic acid]
18 | > 20 | O=C(O)[C@H](Cc1ccccc1)N(C(=O)c1ccc(Cl)cc1Cl)c1ccc(Br)cc1 [compound #191, 2-[(4-Bromo-phenyl)-(2,4-dichloro-benzoyl)-amino]-3-phenyl-propionic acid]
